Experiment [1] has as its system A549. As to the kind of experiment: Antiproliferative activity against human A549 cells assessed as inhibition of cell growth by MTT assay. The format is functional, cell-based. Background: Formazan colour is commonly taken as a measure of viable cells.
In a further experiment the test system is HepG2. The experiment in a line: Antiproliferative activity against human HepG2 cells assessed as inhibition of cell growth by MTT assay. The format is functional, cell-based.
A further experiment relates to SiHa. As to the kind of experiment: Antiproliferative activity against human SiHa cells assessed as inhibition of cell growth by MTT assay. The format is functional, cell-based.
For a further experiment, the system named is HCT-116. The experiment in a line: Antiproliferative activity against human HCT-116 cells assessed as inhibition of cell growth by MTT assay. Format: functional, cell-based.
A further experiment has as its system PC-3. As to the kind of experiment: Antiproliferative activity against human PC-3 cells assessed as inhibition of cell growth by MTT assay. The format is functional, cell-based.
The next experiment concerns MCF7. As to the kind of experiment: Antiproliferative activity against human MCF7 cells assessed as inhibition of cell growth by MTT assay. Format: functional, cell-based.
Experiment [2] has as its system A549. As to the kind of experiment: Induction of cell cycle arrest in human A549 cells assessed as accumulation of cells at G0/G1 phase at 3 uM by FACS analysis ( Rvb = 49.93%). Format: functional. On the technique in general: In flow cytometry, cells or beads pass a laser one at a time.
Experiment [3] relates to A549. As to the kind of experiment: Induction of cell cycle arrest in human A549 cells assessed as accumulation of cells at S phase at 3 uM by FACS analysis ( Rvb = 40.71%). The format is functional.
Experiment [4] relates to A549. As to the kind of experiment: Induction of cell cycle arrest in human A549 cells assessed as accumulation of cells at G2/M phase at 3 uM by FACS analysis ( Rvb = 9.35%). Format: functional.

Bounds are passed on as bounds.

24 compounds from ChEMBL document CHEMBL5365469, “Design, synthesis and antitumor effects of novel benzimidazole derivatives as PI3K inhibitors” (Bioorg Med Chem Lett, 2023) can be followed below.

The term IC50 denotes the concentration that gives 50% inhibition. As to `CCOC(=O)/C=C/c1cc2[nH]c(-c3ccc(OC)c(OC)c3OC)nc2cc1OC`, the half-inhibitory concentration (IC50) in the experiment on A549 [1] is more than 100 µM; with HepG2, more than 100 µM; in the experiment on SiHa, 80.6 µM; in the experiment with HCT-116 it was 75.1 µM; in the experiment on PC-3 it was 84.9 µM; with MCF7 it was more than 100 µM.

Take `COc1cc2nc(-c3ccc(OC)c(OC)c3OC)[nH]c2cc1/C=C/C(N)=O`: the IC50 in the experiment on A549 [1], with HepG2, in the experiment with SiHa, in the experiment on HCT-116, in the experiment on PC-3 and in the experiment on MCF7 was more than 100 µM each time.

On to `COc1cc2nc(-c3ccc(OC)c(OC)c3OC)[nH]c2cc1/C=C(\C)C(N)=O`, for which the IC50 in the experiment on A549 [1] is more than 100 µM; in the experiment with HepG2, more than 100 µM; with SiHa, more than 100 µM; with HCT-116, more than 100 µM; with PC-3, 90.8 µM; in the experiment with MCF7, more than 100 µM.

For `COc1cc2nc(-c3ccc(OC)c(OC)c3OC)[nH]c2cc1C#Cc1ccc(C(F)(F)F)cc1`, the 50% inhibitory concentration (IC50) in the experiment on A549 [1] is 46.1 µM; in the experiment on HepG2, 56.8 µM; in the experiment on SiHa, 86.6 µM; in the experiment on HCT-116, 15 µM; in the experiment with PC-3, 41.1 µM; with MCF7, more than 100 µM.

For the compound `COc1cc2nc(-c3cc(OC)c(OC)cc3OC)[nH]c2cc1/C=C/C(N)=O`, the 50% inhibitory concentration (IC50) in the experiment on A549 [1] is 93.3 µM; in the experiment with HepG2, more than 100 µM; in the experiment with SiHa it was 5.27 µM; in the experiment with HCT-116, 29 µM; with PC-3, 22.6 µM; in the experiment with MCF7, 77.8 µM.

As for `COc1cc2nc(-c3cc(OC)c(OC)cc3OC)[nH]c2cc1C#Cc1ccccc1Cl`, the IC50 is more than 100 µM in the experiment on A549 [1]; 23.3 µM in the experiment on HepG2; 90.8 µM in the experiment on SiHa; more than 100 µM in the experiment on HCT-116; 57.3 µM in the experiment on PC-3; 27 µM in the experiment on MCF7.

Regarding `COc1cc2nc(-c3ccc(OC)c(OC)c3OC)[nH]c2cc1C#Cc1ccccc1Cl`, the half-maximal inhibitory concentration (IC50) in the experiment with A549 [1] was more than 100 µM; in the experiment with HepG2, 96.8 µM; with SiHa it was more than 100 µM; in the experiment with HCT-116, 81.4 µM; with PC-3, 22.7 µM; in the experiment on MCF7 it was more than 100 µM.

Turning to `CCOC(=O)/C=C/c1cc2[nH]c(-c3cc(OC)c(OC)cc3OC)nc2cc1OC`, the half-inhibitory concentration (IC50) with A549 [1] came out at 14.8 µM; with HepG2, 13.7 µM; in the experiment with SiHa, 9.8 µM; in the experiment on HCT-116, 6.94 µM; in the experiment with PC-3, 4.01 µM; in the experiment with MCF7, 22 µM.

For the compound `COc1cc2nc(-c3cc(OC)c(OC)cc3OC)[nH]c2cc1/C=C/C(=O)N1CCOCC1`, the IC50 in the experiment with A549 [1] is more than 100 µM; in the experiment with HepG2 it was 87.4 µM; with SiHa it was 6.57 µM; with HCT-116, 12 µM; in the experiment on PC-3 it was 8.45 µM; in the experiment on MCF7, 15.5 µM.

In the case of `COc1cc2nc(-c3ccc(OC)c(OC)c3OC)[nH]c2cc1/C=C/C(=O)NC(C)C`, the IC50 with A549 [1] is 85.4 µM; in the experiment on HepG2 it was 36.8 µM; in the experiment on SiHa, 72.3 µM; in the experiment with HCT-116, 38.4 µM; in the experiment on PC-3 it was 46 µM; with MCF7, more than 100 µM.

With `COc1cc2nc(-c3cc(OC)c(OC)cc3OC)[nH]c2cc1/C=C(\C)C(N)=O`, the IC50 in the experiment with A549 [1] was found to be 73.4 µM; in the experiment with HepG2, 61 µM; in the experiment on SiHa, 33.5 µM; in the experiment with HCT-116, 32.9 µM; in the experiment on PC-3, 22.1 µM; with MCF7 it was 57.3 µM.

As for `COc1cc2nc(-c3ccc(OC)c(OC)c3OC)[nH]c2cc1C#Cc1ccccc1F`, the 50% inhibitory concentration (IC50) in the experiment with A549 [1] was more than 100 µM; in the experiment with HepG2, 35.6 µM; with SiHa it was more than 100 µM; in the experiment with HCT-116 it was 39.3 µM; in the experiment with PC-3, 26.9 µM; with MCF7, more than 100 µM.

On to `COc1cc2nc(-c3cc(OC)c(OC)cc3OC)[nH]c2cc1C#Cc1ccc(C(F)(F)F)cc1`, for which the 50% inhibitory concentration (IC50) in the experiment on A549 [1] is 33.1 µM; in the experiment with HepG2 it was 44.6 µM; with SiHa it was 24.4 µM; in the experiment with HCT-116, 4.47 µM; in the experiment on PC-3 it was 19.5 µM; in the experiment on MCF7 it was 66.7 µM.

As to `COc1cc2nc(-c3cc(OC)c(OC)cc3OC)[nH]c2cc1/C=C/C(=O)NC(C)(C)C`, the IC50 with A549 [1] came to 8.36 µM; in the experiment with HepG2, 13 µM; in the experiment on SiHa it was 3.48 µM; in the experiment with HCT-116 it was 3.11 µM; with PC-3, 3.74 µM; in the experiment on MCF7, 21.7 µM.

As to `COc1cc2nc(-c3cc(OC)c(OC)cc3OC)[nH]c2cc1C#Cc1ccc(Cl)cc1`, the half-maximal inhibitory concentration (IC50) in the experiment with A549 [1] was more than 100 µM; with HepG2, 19.4 µM; in the experiment on SiHa, more than 100 µM; in the experiment on HCT-116, 3.05 µM; in the experiment on PC-3 it was 10.5 µM; in the experiment on MCF7, 6.65 µM.

Consider `COc1cc2nc(-c3cc(OC)c(OC)cc3OC)[nH]c2cc1/C=C/C(=O)NCCO`, for which the 50% inhibitory concentration (IC50) in the experiment with A549 [1], in the experiment with HepG2, in the experiment with SiHa, in the experiment on HCT-116, in the experiment with PC-3 and in the experiment with MCF7 was more than 100 µM each time.

On to `COc1ccc(C#Cc2cc3[nH]c(-c4cc(OC)c(OC)cc4OC)nc3cc2OC)cc1`, for which the IC50 in the experiment with A549 [1] was 9.7 µM; in the experiment on HepG2 it was 88.7 µM; with SiHa, 33.4 µM; in the experiment with HCT-116, 3.02 µM; in the experiment on PC-3, 20.2 µM; in the experiment on MCF7, 7.14 µM.

As for `COc1ccc(C#Cc2cc3[nH]c(-c4ccc(OC)c(OC)c4OC)nc3cc2OC)cc1`, the half-maximal inhibitory concentration (IC50) in the experiment on A549 [1] was more than 100 µM; in the experiment with HepG2, 94.8 µM; in the experiment on SiHa, more than 100 µM; in the experiment with HCT-116, more than 100 µM; in the experiment on PC-3, more than 100 µM; with MCF7 it was more than 100 µM.

For `Nc1cc(C(F)(F)F)c(-c2cc(N3CCOCC3)nc(N3CCOCC3)n2)cn1` [BUPARLISIB], the IC50 in the experiment on A549 [1] came out at 9.75 µM; in the experiment on HepG2 it was 23.6 µM; in the experiment with SiHa it was 7.18 µM; in the experiment with HCT-116 it was 3.73 µM; in the experiment on PC-3 it was 12.1 µM; with MCF7, 16.4 µM. Also, the Activity was found to be 35.32% in the experiment with A549 [2], 27.99% with A549 [3] and 36.68% with A549 [4].

Regarding `COc1cc2nc(-c3ccc(OC)c(OC)c3OC)[nH]c2cc1/C=C/C(=O)NCCO`, the IC50 is more than 100 µM with A549 [1]; more than 100 µM with HepG2; 22.6 µM in the experiment with SiHa; 53.9 µM with HCT-116; 65.4 µM in the experiment on PC-3; more than 100 µM in the experiment with MCF7.

With `COc1cc2nc(-c3cc(OC)c(OC)cc3OC)[nH]c2cc1/C=C/C(=O)NC(C)C`, the half-maximal inhibitory concentration (IC50) is more than 100 µM with A549 [1]; 55.6 µM in the experiment on HepG2; more than 100 µM with SiHa; 37.4 µM with HCT-116; 92.6 µM in the experiment on PC-3; more than 100 µM in the experiment with MCF7.

On to `COc1cc2nc(-c3ccc(OC)c(OC)c3OC)[nH]c2cc1/C=C/C(=O)NC(C)(C)C`, for which the IC50 in the experiment on A549 [1] is more than 100 µM; with HepG2 it was more than 100 µM; with SiHa, 38 µM; with HCT-116, 15.3 µM; in the experiment on PC-3 it was 19.6 µM; with MCF7 it was more than 100 µM.

In the case of `COc1cc2nc(-c3ccc(OC)c(OC)c3OC)[nH]c2cc1/C=C/C(=O)N1CCOCC1`, the IC50 in the experiment with A549 [1] is more than 100 µM; with HepG2, more than 100 µM; in the experiment with SiHa it was 76 µM; with HCT-116, 67.8 µM; in the experiment with PC-3, 37.6 µM; in the experiment with MCF7, more than 100 µM.

Regarding `COc1cc2nc(-c3ccc(OC)c(OC)c3OC)[nH]c2cc1C#Cc1ccc(Cl)cc1`, the IC50 is more than 100 µM in the experiment on A549 [1]; 66.2 µM in the experiment with HepG2; more than 100 µM in the experiment on SiHa; 10.4 µM with HCT-116; 20.4 µM in the experiment with PC-3; more than 100 µM with MCF7.
